A word on the IC50: it is the midpoint of a concentration-inhibition curve. A lower IC50 goes with inhibition by little substance. A word on the fraction unbound: it is the share of the substance not bound to proteins or other matrix.

Read-outs that look alike come from different tables or passages of the source.

Consider 15 compounds from US20050222251A1, “Dual inhibition of cyclooxygenase-2 and carbonic anhydrase” (AMOREPACIFIC CORPORATION, priority 2004, published 2005).

Data set [1] concerns the target T1, Human CA II (Homo sapiens, UniProt P00918).
T1 construct: purchased Sigma C-4936
Nature of the data set: Inhibition assay for CA (Method A), CA II. It counts as biochemical. Particulars: CO2 hydration, phenol red. The protocol:
(§1) Compounds of Formula I were assessed for their inhibitory activities against human CAs according to methods described in a literature and a prior art. […] Details of the employed assay methods (Method A and Method B) for the inhibition of CAs are provided in the section of “MATERIALS AND METHODS” of this invention. Provided below are some of compounds of Formula I assayed for the inhibition of CAs. [drawing 6] [drawing 7] [drawing 8]
(§2) DMSO and buffer agents were obtained from Sigma. Distilled water was prepared in-house by distilling deionized water.
(§3) Inhibition Assay for CA (Method A): CA inhibitory activities by COX-2 inhibitors of this invention were assessed by a previously reported method. […] Then the interval was measured from the initiation of the reaction to the point of the color change of the solution from purple to yellow. During the entire reaction, the reaction solution was kept bubbled with CO2.

For data set [2], the target named is T2, Human CA I (Homo sapiens, UniProt P00915).
T2 construct: purchased Sigma C-6165
T2 sequence (P00915 whole entry): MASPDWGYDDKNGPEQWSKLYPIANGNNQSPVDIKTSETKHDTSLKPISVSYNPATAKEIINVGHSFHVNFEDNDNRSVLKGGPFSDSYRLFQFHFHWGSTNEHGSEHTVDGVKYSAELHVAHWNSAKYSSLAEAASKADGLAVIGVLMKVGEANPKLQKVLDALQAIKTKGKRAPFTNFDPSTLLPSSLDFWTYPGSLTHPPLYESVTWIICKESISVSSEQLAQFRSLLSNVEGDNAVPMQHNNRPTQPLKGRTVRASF
Put plainly: Inhibition assay for CA (Method A), CA I. In kind it is biochemical. The following applies: CO2 hydration, phenol red. The protocol:
as §1, §2, §3

For a further data set, the system named is intraocular pressure. The following applies: oral administration, hypertensive rabbits; cited from earlier work.
For data set [3] the following is noted: cited from earlier work.
The conditions of data set [4]: FDA pharmacology review; valdecoxib in human whole blood; cited from earlier work.
For data set [5] the following is noted: cited from earlier work; for primary target sites of the GI adverse events: repeated oral administrations.
The target of data set [6] is T2, Human CA I. Put plainly: Inhibition assay for CA (Method B, esterase activity), CA I. The following applies: p-nitrophenylacetate hydrolysis, pH 7.6. In kind it is biochemical. The protocol: as §1, §2
(§4) The employed method is briefly described as follows. An aqueous reaction mixture consisting of 2 Wilbur-Anderson units of CA, 4 mM p-nitrophenylacetate, 5% DMSO, 0.1 M Na2SO4, and 50 mM Tris-HCl buffer at pH 7.6 was prepared to contain a designated amount of inhibitor. The esterase activity of CA (the hydrolysis of p-nitrophenylacetate) was followed by the increases in absorbance at 405 nm using an ELISA reader at room temperature. The initial rate (slope of the initial absorbance data) data from the absorbance data were used to calculate % inhibition of CA at a designated concentration of inhibitor according to equation (7). % Inhibition=[1−(Initial Rate with Inhibitor)/(Initial Rate without Inhibitor)]×100 (7)

The target of data set [7] is T1, Human CA II. Nature of the data set: Inhibition assay for CA (Method B, esterase activity), CA II. In kind it is biochemical. The following applies: p-nitrophenylacetate hydrolysis, pH 7.6. How it is done:
as §1, §2, §4

The conditions of data set [8]: human whole blood, FDA pharmacology review; cited from earlier work.
Data set [9] can be described thus: Plasma protein binding, filtration method, 14C-labeled compound. In kind it is in vitro ADME. Particulars: Sprague-Dawley (SD), rat, broad range of concentrations. How it is done:
Alternatively, plasma protein binding was determined by a filtration method employing a ^14C-labeled compound of Formula I. Scintillation counting was used for analysis in place of HPLC.

Data set [10] can be described thus: Repeat dose toxicity study in monkeys. The protocol: Toxicokinetic studies were performed with treatment groups in monkeys. Satellite toxicokinetic groups were used for the toxicokinetic studies of treatment groups in rats. Animals at terminal sacrifice were evaluated for histopathological findings in the GI tract and other organs.
Data set [11] deals with adjuvant-induced arthritis. Particulars: male Lewis rats, oral, bid; cited from earlier work.
A short description of data set [12]: Pharmacokinetic studies in rats. It counts as in vivo. Particulars: rat, plasma. How it is done: Pharmacokinetic Studies in Rats: An appropriate amount of a compound suspended in 1% aqueous methylcelluose solution was administered to male SD rats by oral gavage. Blood samples were collected from the retro-orbital sinus at designated time points over 0 to 24 hours post dose. Plasma was separated from each withdrawn blood sample by centrifugation and the plasma sample was stored at 4° C. until HPLC analysis for the quantification of the compound. The plasma samples were analyzed by reverse phase HPLC using an appropriate internal standard and a pre-established calibration curve.

The nature of data set [13]: Plasma protein binding, filtration method, HPLC. In kind it is in vitro ADME. Particulars: male, SD; pooled rat plasma at 1 μg/ml. How it is done: Plasma Protein Binding of Compound: Plasma protein binding was determined for a compound of Formula I by a filtration method. An aliquot of a compound stock solution in DMSO was added to a designated volume of freshly prepared pooled plasma from male SD rats. The plasma solution was then subjected to filtration using a centrifuge filter (Amicon YM-30) at 4000 g for 30 min. The filtrate was analyzed by HPLC to determine the concentration of the compound.

Data set [14] has as its system carrageenan-induced thermal hyperalgesia. Particulars: male SD rats, orally administered; cited from earlier work.
A short description of data set [15]: Repeat dose toxicity study in rats. In kind it is in vivo, rat.
Data set [16] in a line: Partitioning between plasma and erythrocytes, 14C-labeled compound. In kind it is in vitro ADME. The protocol:
Alternatively, partitioning between plasma and erythrocytes was determined by using a ^14C-labeled compound of Formula I and whole blood withdrawn as heparinized. Scintillation counting was used for analysis in place of HPLC.

[17] abbreviates: repeated oral administrations for 4 weeks.

Turning to `CC1(C)OC(c2ccc(S(N)(=O)=O)cc2F)=C(c2ccc(F)cc2)C1=O` [Example 8, 5-{4-(aminosulfonyl)-2-fluorophenyl}-2,2-dimethyl-4-(4-fluorophenyl)-3(2H)furanone], the results for the IC50 at Human CA II [1] and at Human CA I [2] were 420 nM and 1900 nM, respectively.
Consider `Cc1onc(-c2ccccc2)c1-c1ccc(S(N)(=O)=O)cc1` [valdecoxib], for which, in the data set with intraocular pressure, the “effect on intraocular pressure” value is given as “reduced intraocular pressure”. Moreover, the thromboembolic events entry in [3] (acute use, coronary artery bypass graft patients) was “increase in the thromboembolic events”. Further, in data set [4], the plasma protein binding is listed as 98%. Further, in [5] (rat, in vivo), the gastric toxicity result is “not associated with gastric toxicity”.
Regarding `CC1(C)OC(c2ccc(S(N)(=O)=O)cc2)=C(c2cc(F)ccc2F)C1=O` [Example 2, 5-{4-(aminosulfonyl)phenyl}-4-(2,5-difluorophenyl)-2,2-dimethyl-3(2H)furanone], the IC50 on Human CA II [1] was determined as 740 nM; at Human CA I [2], 3200 nM.
For the compound `Cc1cnc(NC(=O)C2=C(O)c3ccccc3S(=O)(=O)N2C)s1` [Meloxicam], in data set [5] (rats), the “primary target sites of the GI adverse events” value (shortened to “primary target sites”) is listed as “duodenum”.
With `CC1(C)OC(c2ccc(S(N)(=O)=O)c(F)c2)=C(c2cccc(F)c2)C1=O` [Example 4, 5-{4-(aminosulfonyl)-3-fluorophenyl}-2,2-dimethyl-4-(3-fluorophenyl)-3(2H)furanone], the IC50 on Human CA II [1] was 450 nM; on Human CA I [2] it was 1700 nM; against Human CA I [6] it was 210 nM; on Human CA II [7], 27 nM.
With `CC1(C)OC(c2ccc(S(N)(=O)=O)cc2F)=C(c2cc(F)cc(F)c2)C1=O` [Example 9, 5-{4-(aminosulfonyl)-2-fluorophenyl}-4-(3,5-difluorophenyl)-2,2-dimethyl-3(2H)furanone], the results for the IC50 against Human CA II [1] and at Human CA I [2] were 630 nM and 4700 nM, respectively.
As to `CC1(C)OC(c2ccc(S(N)(=O)=O)c(F)c2)=C(c2cc(F)cc(F)c2)C1=O` [Example 7, 5-{4-(aminosulfonyl)-3-fluorophenyl}-4-(3,5-difluorophenyl)-2,2-dimethyl-3(2H)furanone], the results for the IC50 at Human CA II [1] and against Human CA I [2] were 630 nM and 3400 nM, respectively.
As to `CS(=O)(=O)c1ccc(C2=C(c3ccccc3)C(=O)OC2)cc1` [rofecoxib], the “distribution ratio erythrocytes over plasma” value in [8] is reported as “no noticeable preferential distribution”. Also, the thromboembolic cardiovascular events entry in data set [3] (25 mg/day, long term cancer prevention trial (APPROVe)) is recorded as “increased risk of thromboembolic cardiovascular events”. Also, the plasma protein binding in data set [4] is 87%. The gastric toxicity result in data set [5] (rats, doses where the intestinal toxicity began to come out) was “not associated with gastric toxicity”. Further, the “primary target sites” value in [5] (rats) was “jejunum and ileum”.
For the compound `O=C(O)Cc1ccccc1Nc1c(Cl)cccc1Cl` [diclofenac], the “effect on intraocular pressure” value in the data set with intraocular pressure is on record as “failed to reduce the intraocular pressure”.
Turning to `Cc1cc(C2=C(c3cccc(F)c3)C(=O)C(C)(C)O2)ccc1S(N)(=O)=O` [Example 10, 5-{4-(aminosulfonyl)-3-methylphenyl}-2,2-dimethyl-4-(3-fluorophenyl)-3(2H)furanone], the IC50 on Human CA II [1] was determined as 5400 nM; at Human CA I [2], 9100 nM.
With `CC1(C)OC(c2ccc(S(N)(=O)=O)c(F)c2)=C(c2cc(F)ccc2F)C1=O` [Example 5, 5-{4-(aminosulfonyl)-3-fluorophenyl}-4-(2,5-difluorophenyl)-2,2-dimethyl-3(2H)furanone], the IC50 at Human CA II [1] amounted to 480 nM; against Human CA I [2], 1300 nM; on Human CA I [6], 240 nM; on Human CA II [7], 14 nM.
`CC1(C)OC(c2ccc(S(N)(=O)=O)cc2)=C(c2cccc(F)c2)C1=O` [Example 1, 5-{4-(aminosulfonyl)phenyl}-2,2-dimethyl-4-(3-fluorophenyl)-3(2H)furanone]: the fraction unbound in data set [9] is approximately 0.1. The “histopathological findings in the stomach” value is reported as “one case of focal mucosal degeneration in the stomach” in data set [10] (4 weeks, one out of 18 subjects) and “no positive histopathological findings in the stomach” in data set [15] (repeated oral administrations for 4 weeks, daily systemic exposure of ca 30,000 hr×ng/ml). Also, the “daily systemic exposure of the subject with the histopathological finding in the stomach” value in [10] (final day of the treatment) is listed as > 20,000 hr×ng/ml. In data set [10] (setting [17]), the “histopathological findings in the intestines” value was “not associated with positive histopathological findings in the intestines”. In addition, the half-maximal inhibitory concentration (IC50) on Human CA II [1] came to 800 nM; at Human CA I [2], 3000 nM; at Human CA I [6] it was 290 nM; against Human CA II [7], 63 nM. The “ED50 by adjuvant-induced arthritis” value in [11] is 0.1 mg/kg/day. Moreover, the Cmax in data set [12] (male, SD, oral, 0.05 mg/kg, 82 ng/ml divided by 20, read-out: Cmax calculated for 0.1 mg/kg/day, bid (0.05 mg/kg)) was 4.1 ng/mL; in data set [12] (oral 1 mg/kg, male SD rats, read-out: plasma Cmax) it was 82 ng/mL. This compound also came in with a free fraction (fraction unbound) at 1 μg/ml in data set [13] of less than 0.01. Further, the “ED50 in carrageenan-induced thermal hyperalgesia” value in data set [14] was 0.25 mg/kg. The “primary target site of the intestinal adverse findings” value in [15] was “caecum”. For the same compound, in [15] (oral, up to 4 weeks), the “dose limiting adverse effects” value is on record as “Intestinal adverse effects (primarily in the caecum)”. In data set [15] (setting [17]), the “daily systemic exposure without positive histopathological findings in the stomach” value was ~30,000 hr×ng/ml. In addition, in [16], the “distribution to erythrocytes over plasma” value is on record as “even more preferentially distribute to erythrocytes over plasma”.
For `CC1(C)OC(c2ccc(S(N)(=O)=O)c(F)c2)=C(c2ccc(F)c(F)c2)C1=O` [Example 6, 5-{4-(aminosulfonyl)-3-fluorophenyl}-4-(3,4-difluorophenyl)-2,2-dimethyl-3(2H)furanone], the IC50 at Human CA II [1] was 910 nM; against Human CA I [2] it was 5000 nM.
Turning to `Cc1ccc(-c2cc(C(F)(F)F)nn2-c2ccc(S(N)(=O)=O)cc2)cc1` [celecoxib], the thromboembolic events entry in data set [3] (400 mg/day and 800 mg/day, long term cancer prevention trial (APC)) was “increases in the thromboembolic events”. Besides, the gastric toxicity result in data set [5] (rat, in vivo) is given as “not associated with gastric toxicity”. Further, the “primary target sites” value in data set [5] (rats) was “jejunum and ileum”.
For `COc1ccc2c(c1)c(CC(=O)O)c(C)n2C(=O)c1ccc(Cl)cc1` [indomethacin, reference compound], in data set [11], the “ED50 by adjuvant-induced arthritis” value was 0.3 mg/kg/day. Moreover, in data set [14], the “ED50 in carrageenan-induced thermal hyperalgesia” value is approximately 1.0 mg/kg.
